Data set [1] in a line: Ligand partition coefficient between polar solvent and hexane. The class given is physicochemical.
Data set [2] is described as follows: Kpartition in hydroformylation catalyst mixture extracted with hexane (layers analyzed for rhodium). The data set is classed as physicochemical. Particulars: acetonitrile catalyst solution after 1-dodecene hydroformylation, 74° C, equal volume hexane. As to the method:
To this solution was then charged 5 milliliters of 1-dodecene. The solution was stirred and allowed to equilibrate until no increase in pressure was observed. The reactor was then pressurized to 100 psig with H2 :CO (1:1). Pressure was maintained between 100 and 95 psig until no further reaction had occurred. At this point, the catalyst containing solution was discharged from the reactor. 1.5 milliliters of the catalyst solution was transferred to a vial. To this was added 1.5 milliliters of hexane. The mixture was vigorously shaken for several minutes, then allowed to settle and phase separate. The layers were then separated and analyzed for rhodium content.

Data set [3] is described as follows: Aldehyde partition coefficient between nonpolar and polar solvent.
Description: The efficiency of this extraction process can be measured by a partition coefficient Kp of the one or more products which is defined as follows: [formula]
The vial was shaken vigorously, then allowed to settle. An aliquot from both phases was removed and analyzed for aldehyde via GC. Table H indicates the partition coefficient, which was determined by the ratio of the GC area for the aldehydes (sum of n and iso) in the nonpolar phase to the polar phase.
In this case, the aldehyde contained iso-heptadecanal, n-heptadecanal, and a small amount of C16 alkenes and alkanes. Table H indicates the partition coefficient.
Table H indicates the partition coefficient.
Table H indicates partition coefficient.
[4] abbreviates: 3-methyl-2-oxazolidinone/hexane, ambient temperature.
The mark [5] stands for this setting: DMF/hexane, ambient temperature.
[6] abbreviates: DMSO/hexane, ambient temperature.
[7] abbreviates: acetonitrile/hexane, ambient temperature.
The mark [8] stands for this setting: adiponitrile/hexane, ambient temperature.
[9] abbreviates: summary table, acetonitrile and hexane.
Where [10] appears, read: caprolactone/hexane, ambient temperature.
The mark [11] stands for this setting: 2,2-dimethylbutane/acetonitrile.

SMILES strings stand for the structures. Like-named read-outs stand apart in the source and are kept apart here.

With `c1ccc(P(c2ccccc2)C2CCCCC2)cc1` [CHDPP, cyclohexyldiphenylphosphine, reference compound], the Kpartition in data set [1] (setting [4]) was 1.2; in data set [1] (setting [5]), 2; in data set [1] (setting [6]) it was 0.5; in data set [1] (setting [7]), 0.5; in data set [1] (setting [8]), 0.4; in data set [1] (setting [9]), 0.4.

On to `N#Cc1ccc(P(c2ccc(C#N)cc2)c2ccc(C#N)cc2)cc1` [Ligand A], for which the Kpartition was above 1000 in data set [1] (setting [4]); above 1000 in data set [1] (setting [5]); above 1000 in data set [1] (setting [6]); 430 in data set [1] (setting [7]); above 1000 in data set [1] (setting [8]); above 1000 in data set [1] (setting [10]). In addition, the Kpartition in data set [1] (setting [9]) was 430.

For `N#Cc1cccc(P(c2cccc(C#N)c2)c2cccc(C#N)c2)c1` [Ligand B], the Kpartition in data set [1] (setting [5]) was 470; in data set [1] (setting [6]), 550; in data set [1] (setting [7]) it was 470; in data set [1] (setting [10]), 960; in data set [1] (setting [9]) it was 470.

Regarding `O=P(CCP(c1ccccc1)c1ccccc1)(c1ccccc1)c1ccccc1` [Ligand D], the Kpartition in data set [1] (setting [5]) is 60; in data set [1] (setting [6]), 440; in data set [1] (setting [7]), 920; in data set [1] (setting [10]) it was 80; in data set [1] (setting [9]), 920.

`O=P(CP(c1ccccc1)c1ccccc1)(c1ccccc1)c1ccccc1` [Ligand E]: the Kpartition is recorded as 50 in data set [1] (setting [5]), 620 in data set [1] (setting [6]), 80 in data set [1] (setting [7]) and 620 in data set [1] (setting [9]).

With `N#CCCP(CCC#N)CCC#N` [Ligand F], the Kpartition in data set [1] (setting [7]) and in data set [1] (setting [9]) was above 100 in each case.

As for `COc1ccc(P(c2ccc(OC)cc2)c2ccc(OC)cc2)cc1` [Ligand G], the Kpartition in data set [1] (setting [7]) and in data set [1] (setting [9]) was 11 in each case.

Regarding `CCCCCCCCCCCCCCP(c1ccc(C#N)cc1)c1ccc(C#N)cc1` [Ligand I], the Kpartition in data set [1] (setting [7]) and in data set [1] (setting [9]) was 7 each time.

For `OCCCP(c1ccccc1)c1ccccc1` [Ligand J], the Kpartition in data set [1] (setting [7]) and in data set [1] (setting [9]) was 26 in each case.

Turning to `N#CCCP(CCC#N)c1ccccc1` [Ligand L], the Kpartition in data set [1] and in data set [1] (setting [7]) was above 100 in each case.

Consider `c1ccc(-c2ccccc2Op2oc3ccccc3c3ccccc3o2)c(Op2oc3ccccc3c3ccccc3o2)c1` [Ligand M], for which the Kpartition in data set [1] (setting [7]) and in data set [1] (setting [9]) was 25 in each case.

Turning to `N#Cc1cccc(Op2oc3ccccc3c3ccccc3o2)c1` [Ligand N], the Kpartition in data set [1] (setting [7]) and in data set [1] (setting [9]) was 28 throughout.

In the case of `COc1cc(C(C)(C)C)c2op(Oc3ccccc3C#N)oc3c(C(C)(C)C)cc(OC)cc3c2c1` [Ligand O], the Kpartition in data set [1] (setting [7]) and in data set [1] (setting [9]) was 5.2 each time.

As to `N#Cc1ccc(Op2oc3ccccc3c3ccccc3o2)cc1` [Ligand P], the Kpartition in data set [1] (setting [7]) and in data set [1] (setting [9]) was 30 in each case.

For `COc1cc(C(C)(C)C)c2op(Oc3ccc([N+](=O)[O-])cc3)oc3c(C(C)(C)C)cc(OC)cc3c2c1` [Ligand Q], the Kpartition in data set [1] (setting [7]) and in data set [1] (setting [9]) was 5.3 each time.

For `O=[N+]([O-])c1ccc(Op2oc3ccccc3c3ccccc3o2)cc1` [Ligand R], the Kpartition in data set [1] (setting [7]) and in data set [1] (setting [9]) was 22 each time. In addition, in data set [2], the “Kpartition in catalyst mixture” value was 5.3.

As for `COc1cc(-c2cc(OC)cc(C(C)(C)C)c2Op2oc3ccc(OC)cc3c3cc(OC)ccc3o2)c(Op2oc3ccc(OC)cc3c3cc(OC)ccc3o2)c(C(C)(C)C)c1` [Ligand S], in data set [1] (setting [7]), the Kpartition entry is on record as “greater than 100”.

For the compound `C1CCC(P(C2CCCCC2)C2CCCCC2)CC1` [TCHP, tricyclohexylphosphine, reference compound], the Kpartition in data set [1] (setting [7]) is reported as 0.2; in data set [1] (setting [9]), below 0.2.

For `CCCCCCCCP(CCCCCCCC)CCCCCCCC` [TOP, tri-n-octylphosphine, reference compound], the Kpartition in data set [1] (setting [7]) and in data set [1] (setting [9]) was below 0.01 each time.

`c1ccc(P(c2ccccc2)c2ccccc2)cc1` [TPP, triphenylphosphine, reference compound]: the Kpartition was 4.3 in data set [1] (setting [4]); 5.9 in data set [1] (setting [5]); 2.3 in data set [1] (setting [6]); 1.3 in data set [1] (setting [7]); 0.4 in data set [1] (setting [8]); 3 in data set [1] (setting [10]). Besides, in data set [1] (setting [9]), the Kpartition is recorded as 1.3.

As to `CCCCCCCCCCCC=O` [dodecanal], the “Kpartition (nonpolar to polar phase)” value in data set [3] (setting [11]) worked out at 4.6; in data set [3] (heptane/acetonitrile) it was 4.4.

As to `CCCCCCCCCCCCCCCCC=O` [heptadecanal], the “Kpartition (nonpolar to polar phase)” value in data set [3] (hexane/acetonitrile) was found to be 5.5.

As for `CCCCCCCCCCCCCCC=O` [pentadecanal], the “Kpartition (nonpolar to polar phase)” value in data set [3] (hexane/acetonitrile) is recorded as 6.8.

Consider `CCCCCCCCCCCCC=O` [tridecanal], for which the “Kpartition (nonpolar to polar phase)” value in data set [3] (1-dodecene/acetonitrile) was 4.3.

For `CCCCCCCCCCC=O` [undecanal], the “Kpartition (nonpolar to polar phase)” value in data set [3] (1-decene/acetonitrile) was 2.3; in data set [3] (setting [11]), 3.3; in data set [3] (cyclohexane/acetonitrile), 2.0; in data set [3] (hexane/3-methyl-2-oxazolidinone), 2.6; in data set [3] (nonane/acetonitrile), 1.9.

The values are drawn from patent publication US5932772A, “Separation processes” (Union Carbide Chemicals & Plastics Technology Corporation, priority 1998, dated 1999).
